Laboratory results as given in patent publication US11980594B2, “Composition and method for treating a drug-resistant cancer” (NOVELWISE PHARMACEUTICAL CORPORATION, priority 2021, dated 2024).
Read-outs that look alike come from different tables or passages of the source. One block for each compound: values may come before it.

Columns and labels:
[1] = statement from literature; cited from earlier work
[2] = tested on: HT29 cells; assay: CRC cell proliferation assay (CCK8), HT29; type: cell-based; details: Homo sapiens
Experimental: (§1) Three CRC cell lines HT29, HCT116 and RKO were used in this study. The American Type Culture Collection (ATCC; Manassas, Va., USA) provided human CRC cell lines HT29 (ATCC HTB-38; mutant TP53, p.R273H; APC frame shift, p. E1554fs; wild type β-catenin), HCT116 (ATCC CCL-247; wild type TP53; wild type APC; deletion β-catenin, p. S45del) and RKO (ATCC CRL-2577; wild type TP53; wild type APC; wild type β-catenin). Three CRC cells lines as listed above were cultured in adherent culture condition, maintained at 37° C. inside the cell incubation containing 5% CO2. The two cell lines of HCT-116 and HT-29 cells were cultured in McCoy's 5A medium with supplemented 10% fetal bovine serum (Gibco; Thermo Fischer Scientific, Grand Island, N.Y., USA)), 1% penicillin and 1% streptomycin. RKO cell was cultured in MEM medium with supplemented 10% FBS, 1% penicillin, 1% streptomycin and 1% sodium pyruvate. The cell cultures were passaged by trypsinization every three days. BM-BMX (BMX), (E)-2-(4-Methoxybenzyloxy)-3-prenyl-4-methoxy-N-hydroxycinamide, was provided by Nature Wise Biotech & Medicals Corporation (Taipei, Taiwan).
(§2) We plated 4000 CRC cells per well in 96-well plates and allowed them to adhere overnight. To validate cell line responsiveness to BMX and TMZ monotherapy, the cells were treated with different doses of BMX or TMZ for 24, 48, and 72 hrs. To confirm cell responsiveness to the BMX-TMZ combination, cells were either treated with different doses of TMZ ([…]) with or without BMX (5 μM) for 24, 48, and 72 hrs or with different doses of BMX (0-10 μM) with or without TMZ (50 μM) for 24, 48, and 72 hrs. Following treatment, the absorption value was measured using a CCK8 kit (Targetmol, Shanghai, China) at the indicated time points. The results are reported as the mean±standard deviation of at least three replicates.

[3] = tested on: A172-R cells; assay: Cell proliferation/viability assay (CCK8 kit; text says MTT), A172-R; type: cell-based; details: Homo sapiens; A172-R cells (TMZ-resistant); single agent; FIG. 2B/2C; read-out: IC50 values (alone)
From the text: (§3) Four GBM cell lines U87, U87R, A172, and A172R were used in this study. The American Type Culture Collection (ATCC; Manassas, Va., USA) provided human GBM cell lines U87-MG (ATCC HTB-14; GBM of unknown origin) and A172 (ATCC CRL-1620; ATCC). U87R and A172R cells were obtained from Dr. Tsung-I Hsu and Dr. Jian-Ying Chung (The Ph.D. Program for Neural Regenerative Medicine, College of Medical Science and Technology, Taipei Medical University, Taipei, Taiwan). These cells were maintained in Dulbecco's modified Eagle medium (DMEM) with 10% fetal bovine serum (FBS) and 50 μM TMZ for at least 60 days. TMZ resistance in U87R and A172R cells was confirmed using the colony formation assay (FIG. 11). Cells were cultured in DMEM supplemented with 10% FBS, 100 U/mL penicillin, […] streptomycin (all from Gibco; Thermo Fisher Scientific, Waltham, Mass., USA) and maintained in a humidified incubator at 37° C. and 5% CO2. NBM-BMX (BMX), (E)-2-(4-Methoxybenzyloxy)-3-prenyl-4-methoxy-N-hydroxycinamide, was provided by NatureWise Biotech & Medicals Corporation (Taipei, Taiwan).
(§4) We plated 3000 GBM cells per well in 96-well plates and allowed them to adhere overnight. […] Following treatment, the absorption value was measured using a CCK8 kit (Targetmol, Shanghai, China) at the indicated time points. […]

[4] = tested on: U87MG cells; assay: Cell proliferation/viability assay (CCK8 kit; text says MTT), U87MG; type: cell-based; details: Homo sapiens, U-87 MG, single agent, FIG. 2B/2C, read-out: IC50 values (alone)
From the text: as §3, §4

[5] = tested on: A172 cells; assay: Cell proliferation/viability assay (CCK8 kit; text says MTT), A172; type: cell-based; details: Homo sapiens, A 172, single agent, FIG. 2B/2C, read-out: IC50 values (alone)
From the text: as §3, §4

[6] = tested on: HCT116 cells; assay: CRC cell proliferation assay (CCK8), HCT116; type: cell-based; details: Homo sapiens
Experimental: as §1, §2

[7] = tested on: RKO cells; assay: CRC cell proliferation assay (CCK8), RKO; type: cell-based; details: Homo sapiens
Experimental: as §1, §2

[8] = tested on: U87MG-R cells; assay: Cell proliferation/viability assay (CCK8 kit; text says MTT), U87MG-R; type: cell-based; details: Homo sapiens; U87MG-R cells (TMZ-resistant); single agent; FIG. 2B/2C; read-out: IC50 values (alone)
From the text: as §3, §4

- IC50 ([2]; HT-29, 24 h, BMX 5 μM combined with different doses of TMZ, 24 hrs, read-out: IC50 of TMZ): > 400 µM
- IC50 ([2]; HT-29, 24 h, TMZ alone, 24 hrs, read-out: IC50 of TMZ): > 1000 µM
- IC50 ([2]; HT-29, 48 h, BMX 5 μM combined with different doses of TMZ, 48 hrs, read-out: IC50 of TMZ): 128 ± 18.3 µM
- IC50 ([2]; HT-29, 48 h, TMZ alone, 48 hrs, read-out: IC50 of TMZ): 931 ± 47.7 µM
- IC50 ([2]; HT-29, 72 h, TMZ alone, 72 hrs, read-out: IC50 of TMZ): 258 ± 20.5 µM
- IC50 [4]: 81 ± 1.68 µM
- IC50 ([6]; HCT-116, 24 h, BMX 5 μM combined with different doses of TMZ, 24 hrs, read-out: IC50 of TMZ): > 400 µM
- IC50 ([6]; HCT-116, 24 h, TMZ alone, 24 hrs, read-out: IC50 of TMZ): > 1000 µM
- IC50 ([6]; HCT-116, 48 h, BMX 5 μM combined with different doses of TMZ, 48 hrs, read-out: IC50 of TMZ): 41.6 ± 2.4 µM
- IC50 ([6]; HCT-116, 48 h, TMZ alone, 48 hrs, read-out: IC50 of TMZ): 515 ± 21.6 µM
- IC50 ([6]; HCT-116, 72 h, TMZ alone, 72 hrs, read-out: IC50 of TMZ): 192 ± 14.7 µM
- IC50 [8]: 303 ± 15.2 µM
Compound: Cn1nnc2c(C(N)=O)ncn2c1=O [TMZ, Temozolomide, reference compound]
- blood-brain barrier penetration [1]: good penetration of the blood-brain barrier
- IC50 [3]: 595 ± 23.4 µM
- IC50 [5]: 73.5 ± 3.65 µM
- IC50 ([7]; 24 h, BMX 5 μM combined with different doses of TMZ, 24 hrs, read-out: IC50 of TMZ): > 400 µM
- IC50 ([7]; 24 h, TMZ alone, 24 hrs, read-out: IC50 of TMZ): > 1000 µM
- IC50 ([7]; 48 h, BMX 5 μM combined with different doses of TMZ, 48 hrs, read-out: IC50 of TMZ): 21.9 ± 2.7 µM
- IC50 ([7]; 48 h, TMZ alone, 48 hrs, read-out: IC50 of TMZ): 992 ± 52.4 µM
- IC50 ([7]; 72 h, TMZ alone, 72 hrs, read-out: IC50 of TMZ): 380 ± 40.3 µM

- IC50 ([2]; HT-29, 24 h, BMX alone, 24 hrs, read-out: IC50 of BMX): 42.6 ± 2.4 µM
- IC50 ([2]; HT-29, 24 h, TMZ 50 μM combined with different concentrations of BMX, 24 hrs, read-out: IC50 of BMZ): > 10 µM
- IC50 ([2]; HT-29, 48 h, BMX alone, 48 hrs, read-out: IC50 of BMX): 9.9 ± 0.5 µM
- IC50 ([2]; HT-29, 48 h, TMZ 50 μM combined with different concentrations of BMX, 48 hrs, read-out: IC50 of BMZ): 9.1 ± 0.2 µM
- IC50 ([2]; HT-29, 72 h, BMX alone, 72 hrs, read-out: IC50 of BMX): 2.9 ± 0.2 µM
- IC50 ([2]; HT-29, 72 h, TMZ 50 μM combined with different concentrations of BMX, 72 hrs, read-out: IC50 of BMZ): 2.2 ± 0.1 µM
- IC50 [4]: 29.8 ± 2.32 µM
- IC50 ([6]; HCT-116, 24 h, BMX alone, 24 hrs, read-out: IC50 of BMX): 24.8 ± 2.5 µM
- IC50 ([6]; HCT-116, 24 h, TMZ 50 μM combined with different concentrations of BMX, 24 hrs, read-out: IC50 of BMZ): > 10 µM
- IC50 ([6]; HCT-116, 48 h, BMX alone, 48 hrs, read-out: IC50 of BMX): 7.7 ± 0.3 µM
- IC50 ([6]; HCT-116, 48 h, TMZ 50 μM combined with different concentrations of BMX, 48 hrs, read-out: IC50 of BMZ): 3.2 ± 0.3 µM
- IC50 ([6]; HCT-116, 72 h, BMX alone, 72 hrs, read-out: IC50 of BMX): 1.5 ± 0.3 µM
- IC50 ([6]; HCT-116, 72 h, TMZ 50 μM combined with different concentrations of BMX, 72 hrs, read-out: IC50 of BMZ): 0.9 ± 0.1 µM
- IC50 [8]: > 68.1 µM
Compound: COc1ccc(COc2c(/C=C/C(=O)NO)ccc(OC)c2CC=C(C)C)cc1 [BMX, (E)-2-(4-Methoxybenzyloxy)-3-prenyl-4-methoxy-N-hydroxycinamide]
- blood-brain barrier penetration [1]: ability to cross the blood-brain barrier
- IC50 [3]: > 52.6 µM
- IC50 [5]: 21 ± 2.34 µM
- IC50 ([7]; 24 h, BMX alone, 24 hrs, read-out: IC50 of BMX): 38.5 ± 3.5 µM
- IC50 ([7]; 24 h, TMZ 50 μM combined with different concentrations of BMX, 24 hrs, read-out: IC50 of BMZ): > 10 µM
- IC50 ([7]; 48 h, BMX alone, 48 hrs, read-out: IC50 of BMX): 7.2 ± 0.6 µM
- IC50 ([7]; 48 h, TMZ 50 μM combined with different concentrations of BMX, 48 hrs, read-out: IC50 of BMZ): 3.6 ± 0.4 µM
- IC50 ([7]; 72 h, BMX alone, 72 hrs, read-out: IC50 of BMX): 1.5 ± 0.2 µM
- IC50 ([7]; 72 h, TMZ 50 μM combined with different concentrations of BMX, 72 hrs, read-out: IC50 of BMZ): 0.9 ± 0.1 µM
